In PubChem BioAssay (NCI):
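Method: 48-hour compound exposure of cells in 96-well plates, five concentrations, linear interpolation of endpoints. GI50 is the concentration that inhibits growth by half. TGI: total growth inhibition.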

How the values were obtained:
Experiment in all cases: NCI-60 cell line screen, 48 h
A498 renal = tested on: A498 renal
HOP-62 NSCLC = tested on: HOP-62 NSCLC
K-562 leukemia = tested on: K-562 leukemia
KM12 colon = tested on: KM12 colon
SK-MEL-2 melanoma = tested on: SK-MEL-2 melanoma
SNB-75 CNS = tested on: SNB-75 CNS
SW-620 colon = tested on: SW-620 colon
U251 CNS = tested on: U251 CNS

CN(C)CCNC(=O)c1cccc2ccc(-c3ccncc3)nc12
TGI (A498 renal): 4.34 µM | TGI (HOP-62 NSCLC): 5.56 µM | TGI (K-562 leukemia): 9.56 µM | TGI (KM12 colon): 54.3 µM | TGI (SK-MEL-2 melanoma): 13.3 µM | TGI (SNB-75 CNS): 9.9 µM | TGI (SW-620 colon): 18.1 µM | TGI (U251 CNS): 8.75 µM

Cc1cc(N(CCC#N)CCC#N)ccc1/C=C1\N=C(c2cc([N+](=O)[O-])ccc2Cl)N(c2cccc(Cl)c2)C1=O
TGI (A498 renal): > 100 µM | TGI (HOP-62 NSCLC): > 100 µM | TGI (K-562 leukemia): > 100 µM | TGI (KM12 colon): > 100 µM | TGI (SK-MEL-2 melanoma): > 100 µM | TGI (SNB-75 CNS): > 100 µM | TGI (SW-620 colon): > 100 µM | TGI (U251 CNS): > 100 µM

CCCCCCCC(=O)OCC/C=C/C1OC1C1OC(=O)/C=C\C=C\c2nc(oc2C)/C=C(/C)CCC2OC2C1OC(=O)NC(C)=O (centres undefined)
GI50 (A498 renal): 0.00368 µM | TGI (A498 renal): 0.00927 µM | GI50 (HOP-62 NSCLC): 0.0686 µM | TGI (HOP-62 NSCLC): 0.381 µM | GI50 (K-562 leukemia): 30.4 nM | TGI (K-562 leukemia): 1.51 µM | GI50 (KM12 colon): 27.1 nM | TGI (KM12 colon): 0.119 µM | GI50 (SK-MEL-2 melanoma): 0.0222 µM | TGI (SK-MEL-2 melanoma): 0.0647 µM | GI50 (SNB-75 CNS): 0.0277 µM | TGI (SNB-75 CNS): 0.0765 µM | GI50 (SW-620 colon): 39.3 nM | TGI (SW-620 colon): 1.07 µM | GI50 (U251 CNS): 0.0497 µM | TGI (U251 CNS): 3.11 µM

CC(C)(CO)N1CCN(C(=S)Nc2ccccc2)CC1
TGI (A498 renal): > 100 µM | TGI (HOP-62 NSCLC): > 100 µM | TGI (K-562 leukemia): 99.5 µM | TGI (KM12 colon): > 100 µM | TGI (SK-MEL-2 melanoma): > 100 µM | TGI (SNB-75 CNS): > 100 µM | TGI (SW-620 colon): > 100 µM | TGI (U251 CNS): > 100 µM

COC1(OC)CC2OC1C1N=NN(C(=O)OC(C)(C)C)C21 (centres undefined)
TGI (A498 renal): > 100 µM | TGI (HOP-62 NSCLC): > 100 µM | TGI (K-562 leukemia): > 100 µM | TGI (KM12 colon): > 100 µM | TGI (SK-MEL-2 melanoma): > 100 µM | TGI (SNB-75 CNS): > 100 µM | TGI (SW-620 colon): > 100 µM | TGI (U251 CNS): > 100 µM

CC/C=C\C[C@H](F)C/C=C1/C(=O)C=C[C@@H]1C/C=C\CCCC(=O)O
GI50 (A498 renal): 5.59 µM | TGI (A498 renal): 11 µM | GI50 (HOP-62 NSCLC): 7.65 µM | TGI (HOP-62 NSCLC): 15.2 µM | GI50 (K-562 leukemia): 2180 nM | TGI (K-562 leukemia): > 32.5 µM | GI50 (KM12 colon): 4650 nM | TGI (KM12 colon): 13.3 µM | GI50 (SK-MEL-2 melanoma): 6.7 µM | TGI (SK-MEL-2 melanoma): 16.9 µM | GI50 (SNB-75 CNS): 12.5 µM | TGI (SNB-75 CNS): > 32.5 µM | GI50 (SW-620 colon): 5640 nM | TGI (SW-620 colon): 21.3 µM | GI50 (U251 CNS): 4.01 µM | TGI (U251 CNS): 8.94 µM

COc1ccc(-c2onc(N)c2-c2cc(OC)c3c(c2)OCO3)cc1
GI50 (A498 renal): 1.5 µM | TGI (A498 renal): 10.9 µM | GI50 (HOP-62 NSCLC): 4.53 µM | TGI (HOP-62 NSCLC): > 100 µM | GI50 (K-562 leukemia): 473 nM | TGI (K-562 leukemia): > 100 µM | GI50 (KM12 colon): 1850 nM | TGI (KM12 colon): > 75.4 µM | GI50 (SNB-75 CNS): 1.75 µM | TGI (SNB-75 CNS): 7.32 µM | GI50 (SW-620 colon): 598 nM | TGI (SW-620 colon): > 100 µM | GI50 (U251 CNS): 2.79 µM | TGI (U251 CNS): > 26.1 µM

Cc1ccc2c(c1)Sc1c(ccc3ccccc13)N2
GI50 (A498 renal): 83.9 µM | TGI (A498 renal): > 100 µM | GI50 (HOP-62 NSCLC): > 100 µM | TGI (HOP-62 NSCLC): > 100 µM | GI50 (K-562 leukemia): 11200 nM | TGI (K-562 leukemia): > 100 µM | GI50 (KM12 colon): 48700 nM | TGI (KM12 colon): > 100 µM | GI50 (SK-MEL-2 melanoma): > 100 µM | TGI (SK-MEL-2 melanoma): > 100 µM | GI50 (SNB-75 CNS): 15.5 µM | TGI (SNB-75 CNS): > 100 µM | GI50 (SW-620 colon): > 100000 nM | TGI (SW-620 colon): > 100 µM | GI50 (U251 CNS): 9.31 µM | TGI (U251 CNS): > 100 µM

CC(C)(C)c1cc(CCC(=O)Nc2ccc(Cl)cc2)nc(NC#N)n1
TGI (HOP-62 NSCLC): > 100 µM | TGI (K-562 leukemia): > 100 µM | TGI (KM12 colon): > 100 µM | TGI (SK-MEL-2 melanoma): > 100 µM | TGI (SW-620 colon): > 100 µM | TGI (U251 CNS): > 100 µM

COCCCNC(=O)C1C(=O)C(=O)N(CCCOC)C1=O (centres undefined)
TGI (A498 renal): > 100 µM | TGI (HOP-62 NSCLC): > 100 µM | TGI (K-562 leukemia): > 100 µM | TGI (SK-MEL-2 melanoma): > 100 µM | TGI (SNB-75 CNS): > 100 µM | TGI (SW-620 colon): > 100 µM | TGI (U251 CNS): > 100 µM

O=C1c2cccc([N+](=O)[O-])c2C(=O)N1c1ncn[nH]1
TGI (A498 renal): > 100 µM | TGI (HOP-62 NSCLC): > 100 µM | TGI (K-562 leukemia): > 100 µM | TGI (KM12 colon): > 100 µM | TGI (SK-MEL-2 melanoma): > 100 µM | TGI (SNB-75 CNS): 64.6 µM | TGI (SW-620 colon): > 100 µM | TGI (U251 CNS): > 100 µM

O=C(O)CCSC(=O)Nc1ccc([N+](=O)[O-])cc1
TGI (A498 renal): > 100 µM | TGI (HOP-62 NSCLC): > 100 µM | TGI (K-562 leukemia): > 100 µM | TGI (KM12 colon): > 100 µM | TGI (SK-MEL-2 melanoma): > 100 µM | TGI (SNB-75 CNS): 64.7 µM | TGI (SW-620 colon): > 100 µM | TGI (U251 CNS): > 100 µM

O=C(CCc1nnc2sc(-c3ccc(Cl)cc3Cl)nn12)c1nc2ccccc2[nH]1
GI50 (A498 renal): 0.845 µM | TGI (A498 renal): 2.26 µM | GI50 (HOP-62 NSCLC): 0.577 µM | TGI (HOP-62 NSCLC): 2.12 µM | GI50 (K-562 leukemia): 451 nM | TGI (K-562 leukemia): 2.56 µM | GI50 (KM12 colon): 1250 nM | TGI (KM12 colon): 2.86 µM | GI50 (SK-MEL-2 melanoma): 1.78 µM | TGI (SK-MEL-2 melanoma): 5.4 µM | GI50 (SNB-75 CNS): 1.48 µM | TGI (SNB-75 CNS): 3.53 µM | GI50 (SW-620 colon): 229 nM | TGI (SW-620 colon): 0.744 µM | GI50 (U251 CNS): 0.932 µM | TGI (U251 CNS): 2.26 µM

O=C(CC1(O)C(=O)Nc2c(Cl)ccc(Cl)c21)c1ccc(F)cc1 (centres undefined)
TGI (HOP-62 NSCLC): > 100 µM | TGI (K-562 leukemia): > 100 µM | TGI (KM12 colon): > 100 µM | TGI (SK-MEL-2 melanoma): > 100 µM | TGI (SNB-75 CNS): 74.7 µM | TGI (SW-620 colon): > 100 µM | TGI (U251 CNS): > 100 µM

CC/C=C\C[C@@H](O)C/C=C1/C(=O)C=C[C@H]1C/C=C\CCCC(=O)OC
GI50 (A498 renal): 14.6 µM | TGI (A498 renal): 28.1 µM | GI50 (HOP-62 NSCLC): 3.31 µM | TGI (HOP-62 NSCLC): 9.8 µM | GI50 (K-562 leukemia): 987 nM | TGI (K-562 leukemia): 10.1 µM | GI50 (KM12 colon): 1650 nM | TGI (KM12 colon): 3.84 µM | GI50 (SK-MEL-2 melanoma): 6.99 µM | TGI (SK-MEL-2 melanoma): 21.6 µM | GI50 (SNB-75 CNS): 6.17 µM | TGI (SNB-75 CNS): 19.6 µM | GI50 (SW-620 colon): 2840 nM | TGI (SW-620 colon): 8.6 µM | GI50 (U251 CNS): 3.18 µM | TGI (U251 CNS): 10.5 µM

O=C(CCN(C(=O)O)S(=O)(=O)c1ccc(NC(=O)c2ccccc2)cc1)NC1CCCCC1
TGI (A498 renal): > 100 µM | TGI (HOP-62 NSCLC): > 100 µM | TGI (K-562 leukemia): > 100 µM | TGI (KM12 colon): > 100 µM | TGI (SK-MEL-2 melanoma): > 100 µM | TGI (SNB-75 CNS): > 100 µM | TGI (SW-620 colon): 33.1 µM | TGI (U251 CNS): > 100 µM

CCOC1Oc2ccc(C)cc2C(=O)/C1=C\Nc1ccc(C(N)=O)cc1 (centres undefined)
GI50 (HOP-62 NSCLC): 17.6 µM | TGI (HOP-62 NSCLC): 33.7 µM | GI50 (K-562 leukemia): 22600 nM | TGI (K-562 leukemia): 66.6 µM | GI50 (KM12 colon): 16600 nM | TGI (KM12 colon): 34.3 µM | GI50 (SK-MEL-2 melanoma): 34.4 µM | TGI (SK-MEL-2 melanoma): > 100 µM | GI50 (SNB-75 CNS): 44.5 µM | TGI (SNB-75 CNS): > 100 µM | GI50 (SW-620 colon): 15200 nM | TGI (SW-620 colon): 51.2 µM | GI50 (U251 CNS): 13.2 µM | TGI (U251 CNS): 34.2 µM

COc1ccc2nc3c(C(=O)NCCN(C)C)cccc3nc2c1
TGI (A498 renal): 7.54 µM | TGI (HOP-62 NSCLC): 21.4 µM | TGI (K-562 leukemia): 29.5 µM | TGI (KM12 colon): > 100 µM | TGI (SK-MEL-2 melanoma): 21.8 µM | TGI (SNB-75 CNS): 25.5 µM | TGI (SW-620 colon): 81.6 µM | TGI (U251 CNS): 29.5 µM

CCOC(=O)/C(C#N)=C/c1[nH]c(C(=O)OCc2ccccc2)c(C)c1C
TGI (HOP-62 NSCLC): > 100 µM | TGI (K-562 leukemia): > 100 µM | TGI (KM12 colon): > 100 µM | TGI (SK-MEL-2 melanoma): > 100 µM | TGI (SNB-75 CNS): > 100 µM | TGI (SW-620 colon): > 100 µM | TGI (U251 CNS): > 100 µM
